# In patent US20030176436A1, “Novel heterocyclic compounds as selective bacterial DHFR inhibitors and their uses thereof” (priority 2001, published 2003):
# Molecular target: T1, bacterial DHFR (bDHFR) (Escherichia coli, UniProt P0ABQ4)
# T1 construct: gift of Eric Brown, McMaster University
# Assay: DHFR enzyme assay, Ki determination, bacterial DHFR
# Format: biochemical, E. coli
# Conditions: Table 3; read-out: bDHFR Ki
# Procedure: Human and Bacterial DHFR: E. coli DHFR was kindly provided by Eric Brown of MacMaster University.
# (§1) Dihydrofolic acid and NADPH were purchased from Sigma. Enzyme assays were adapted for microtitre format from a previously published procedure (2, 3). All assays were performed in a 250 μl volume in 96-well microtitre plates. Typical assays consisted of 20 nM DHFR (human or E. coli), 100 μM NADPH, and 50 μM dihydrofolic acid in 100 mM HEPES pH 8, 10 mM KCl, and 10 mM MgCl2. The assay was monitored spectrophotometrically for the conversion of NADPH to NADP+, which results in a decrease in absorbance at 340 nm.
# (§2) The reaction was initiated by the addition of 125 μl of 100 μM dihydrofolic acid. The final concentrations in the assay were 20 nM DHFR, 100 μM NADPH, 50 μM dihydrofolic acid, and a range of 500 μM to 20 nM inhibitor compound. The final DMSO concentration was 2% of the total volume. Reactions were monitored as described above.
row,SMILES,Ki [µM]
1,Nc1nc(N)c2nc(CNc3ccc(F)c([N+](=O)[O-])c3)cnc2n1 [Compound 15],0.1 to 0.499
2,CN(Cc1cnc2nc(N)nc(N)c2n1)c1ccccc1 [Compound 9],0.1 to 0.499
3,CN(Cc1cnc2nc(N)nc(N)c2n1)c1cccc([N+](=O)[O-])c1 [Compound 14],< 0.1

# Same assay, conditions: average; read-out: bDHFR Ki/(μM) avg
row,SMILES,Ki [µM]
1,CC(c1csc2ccccc12)N(C)c1ncc2c(N)nc(N)nc2n1 (stereo not drawn) [Compound 25],0.004

# Same assay, conditions: second part of table; read-out: bDHFR
row,SMILES,Ki [µM]
1,Cc1ccc(C(C)N(C)c2ncc3c(N)nc(N)nc3n2)c2ccccc12 (stereo not drawn) [Compound 62],0.802
2,CC(c1csc2ccccc12)N(C)c1ncc2c(N)nc(N)nc2n1 (stereo not drawn) [Compound 25],< 0.004

# Molecular target: T2, human DHFR (hDHFR) (Homo sapiens, UniProt P00374)
# T2 construct: result in the amplification of a 186 amino acid hDHFR coding region; made in house; host or cells: E. coli Top10
# T2 sequence (P00374 1-187): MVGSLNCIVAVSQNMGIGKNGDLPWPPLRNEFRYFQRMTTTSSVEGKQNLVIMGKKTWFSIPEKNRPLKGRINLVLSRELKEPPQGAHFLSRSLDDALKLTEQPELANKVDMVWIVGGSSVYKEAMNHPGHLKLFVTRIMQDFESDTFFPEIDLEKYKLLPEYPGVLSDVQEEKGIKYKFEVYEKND
# Assay: DHFR enzyme assay, Ki determination, human DHFR
# Format: biochemical
# Conditions: Table 3
# Procedure: The human DHFR cDNA was cloned by PCR from the Human Universal Quick-clone™ cDNA purchased from Clontech.
# The PCR fragment was digested with restriction enzymes NdeI and HindIII, and then ligated into a derivative of the pKK223-3 expression vector (Amersham Pharmacia). The final expression vector (pFW96.2) was transformed into E. coli Top10 F40 and hDHFR protein was induced by the addition of 1 mM IPTG followed by incubation at 37° C. for 4 hrs. Recombinant human DHFR was purified based on a previously published procedure (2).
# as §1
# as §2, with “Five microliters of inhibitor compound in DMSO was added to 120 μl of enzyme solution (40 nM DHFR and 200 μM NADPH). The reaction” for “The reaction”
# V=(Vmax[S])/(Km(1+I/Ki)+[S]), where S=dihydrofolate, Km=Michaelis constant for dihydrofolate, I=inhibitor concentration.
row,SMILES,Ki [nM]
1,Nc1nc(N)c2nc(CNc3ccc(F)c([N+](=O)[O-])c3)cnc2n1 [Compound 15],> 5000
2,CN(Cc1cnc2nc(N)nc(N)c2n1)c1ccccc1 [Compound 9],> 5000
3,CN(Cc1cnc2nc(N)nc(N)c2n1)c1cccc([N+](=O)[O-])c1 [Compound 14],> 5000

# Test system: E. coli
# Assay: Microdilution antimicrobial susceptibility test (MIC)
# Format: cell-based
# Conditions: Escherichia coli; Table 2; 90% inhibition of growth
# Procedure: (§3) Stock solutions of tested compounds were prepared in N,N-dimethylformamide (DMF) at a concentration of 5 mg/mL. Working solutions of the tested compounds were then prepared from the stock solutions, in Mueller-Hinton broth (MHB) with a starting concentration of 64 μg/mL.
# (§4) Bacterial inocula were prepared from overnight culture (i.e., one fresh colony from agar plate in 5 ml MHB; H. influenzae was grown in MHB with the addition of yeast extract, haematin, and NAD), centrifuged 2×5 min/3000 rpm (for S. pneumoniae and H. influenzae, 2×10 min/3000 rpm), and dispensed in 5 ml of fresh MHB each time, such that the bacterial suspension is diluted to obtain 100 colony forming units (cfu) in a microplate well (100 μl total volume).
# (§5) Microplate wells were filled with two-fold dilutions of test compound (50 μl), starting with 64 μg/ml. Wells were then filled with 50 μl of bacterial inoculum (final volume: 100 μl/well). The plates were incubated at 37° C. for 18-24 hours (S. pneumoniae was grown in a CO2-enriched atmosphere).
row,SMILES,MIC [µg/mL]
1,Nc1nc(N)c2nc(CNc3ccc(F)c([N+](=O)[O-])c3)cnc2n1 [Compound 15],> 64
2,CN(Cc1cnc2nc(N)nc(N)c2n1)c1ccccc1 [Compound 9],> 64
3,CN(Cc1cnc2nc(N)nc(N)c2n1)c1cccc([N+](=O)[O-])c1 [Compound 14],> 64

# Test system: E. faecalis
# Assay: as above
# Format: cell-based
# Conditions: Enterococcus faecalis; Table 2; 90% inhibition of growth
# Procedure: as §3, §4, §5
row,SMILES,MIC [µg/mL]
1,Nc1nc(N)c2nc(CNc3ccc(F)c([N+](=O)[O-])c3)cnc2n1 [Compound 15],< 2
2,CN(Cc1cnc2nc(N)nc(N)c2n1)c1ccccc1 [Compound 9],< 2
3,CN(Cc1cnc2nc(N)nc(N)c2n1)c1cccc([N+](=O)[O-])c1 [Compound 14],< 2

# Test system: H. influenzae
# Assay: as above
# Format: cell-based
# Conditions: Haemophilus influenzae; Table 2; 90% inhibition of growth; read-out: MIC H. influenzae
# Procedure: as §3, §4, §5
row,SMILES,MIC [µg/mL]
1,Nc1nc(N)c2nc(CNc3ccc(F)c([N+](=O)[O-])c3)cnc2n1 [Compound 15],< 2
2,CN(Cc1cnc2nc(N)nc(N)c2n1)c1ccccc1 [Compound 9],< 2
3,CN(Cc1cnc2nc(N)nc(N)c2n1)c1cccc([N+](=O)[O-])c1 [Compound 14],< 2

# Test system: M. catarrhalis
# Assay: as above
# Format: cell-based
# Conditions: Moraxella catarrhalis; Table 2; 90% inhibition of growth
# Procedure: as §3, §4, §5
row,SMILES,MIC [µg/mL]
1,Nc1nc(N)c2nc(CNc3ccc(F)c([N+](=O)[O-])c3)cnc2n1 [Compound 15],< 2
2,CN(Cc1cnc2nc(N)nc(N)c2n1)c1ccccc1 [Compound 9],2 to 8
3,CN(Cc1cnc2nc(N)nc(N)c2n1)c1cccc([N+](=O)[O-])c1 [Compound 14],< 2

# Test system: P. aeruginosa
# Assay: as above
# Format: cell-based
# Conditions: Pseudomonas aeruginosa; Table 2; 90% inhibition of growth
# Procedure: as §3, §4, §5
row,SMILES,MIC [µg/mL]
1,Nc1nc(N)c2nc(CNc3ccc(F)c([N+](=O)[O-])c3)cnc2n1 [Compound 15],> 64
2,CN(Cc1cnc2nc(N)nc(N)c2n1)c1ccccc1 [Compound 9],> 64
3,CN(Cc1cnc2nc(N)nc(N)c2n1)c1cccc([N+](=O)[O-])c1 [Compound 14],> 64

# Test system: S. aureus
# Assay: as above
# Format: cell-based
# Conditions: Staphylococcus aureus; MIC, average; read-out: S. aureus (μg/ml) avg
# Procedure: as §3, §4, §5
row,SMILES,MIC [µg/mL]
1,CC(c1csc2ccccc12)N(C)c1ncc2c(N)nc(N)nc2n1 (stereo not drawn) [Compound 25],0.25

# Same assay, conditions: Staphylococcus aureus; Table 2; 90% inhibition of growth; read-out: MIC S. aureus
row,SMILES,MIC [µg/mL]
1,Nc1nc(N)c2nc(CNc3ccc(F)c([N+](=O)[O-])c3)cnc2n1 [Compound 15],< 2
2,CN(Cc1cnc2nc(N)nc(N)c2n1)c1ccccc1 [Compound 9],2 to 8
3,CN(Cc1cnc2nc(N)nc(N)c2n1)c1cccc([N+](=O)[O-])c1 [Compound 14],< 2

# Test system: S. pneumoniae
# Assay: as above
# Format: cell-based
# Conditions: Streptococcus pneumoniae; Table 2; 90% inhibition of growth
# Procedure: as §3, §4, §5
row,SMILES,MIC [µg/mL]
1,Nc1nc(N)c2nc(CNc3ccc(F)c([N+](=O)[O-])c3)cnc2n1 [Compound 15],< 2
2,CN(Cc1cnc2nc(N)nc(N)c2n1)c1ccccc1 [Compound 9],< 2
3,CN(Cc1cnc2nc(N)nc(N)c2n1)c1cccc([N+](=O)[O-])c1 [Compound 14],< 2

# Test system: S. cerevisiae
# Assay: Microdilution susceptibility test (MIC), yeast as indicator of cytotoxicity
# Format: cell-based
# Conditions: Saccharomyces cerevisiae; Table 2; 90% inhibition of growth
# Excerpt: The following table of compounds of one aspect of the invention have potent antimicrobial activity against S. aureus bacteria and are anticipated to have physical-chemical properties similar to those of orally absorbed and bioavailable drugs and drug-like compounds. Antibacterial activity for a variety of bacterial species are shown (S. aureus, S. pneumoniae, E. faecalis, M. catarrhalis, and H. influenzae). The yeast cell (S. cerevisiae) in this panel of organisms is an indicator of potential cytotoxicity in mammalian cells.
# as §3, §5
row,SMILES,MIC [µg/mL]
1,Nc1nc(N)c2nc(CNc3ccc(F)c([N+](=O)[O-])c3)cnc2n1 [Compound 15],2 to 8
2,CN(Cc1cnc2nc(N)nc(N)c2n1)c1ccccc1 [Compound 9],> 64
3,CN(Cc1cnc2nc(N)nc(N)c2n1)c1cccc([N+](=O)[O-])c1 [Compound 14],> 64

# Test system: S. aureus
# Assay: S. aureus mouse septicaemia model
# Format: in vivo
# Conditions: administered orally; mouse protection model
# Procedure: Systemic models of infection are described in the literature. The following conditions can be used to assay the compounds in this application. Bacteria are grown in Mueller-Hinton agar at 37° C. during 24 h. For each experiment, a bacterial suspension is prepared by inoculating 4-5 bacterial colonies onto Mueller-Hinton broth (MHB) and by incubating at 37° C. for 24 hours to yield approximately 10^9 CFU/ml. BalbC female mice are supplied by Charles River (Deutschland). Animals are infected by a single administration of an LD100 dose of bacterial culture suspension (1×10^8 CFU/100 μl per animal) in the tail vein. A careful clinical examination is made several times a day, and obvious clinical symptoms and mortality are recorded. Animals survival is observed for a period of 6 days. Azithromycin is dissolved in 0.5% methocel in saline solution and administered orally. Test compounds are micronized with mortar and pestle and then dissolved in methocel saline solution with 3% of DMF. The first dose is administered 30 minutes after infection, with following doses every 12 hours for 3 days.
# In vivo Efficacy Testing—S. aureus Mouse Septicaemia Model.
# Several compounds were tested in a S. aureus mouse protection models for efficacy. Two compounds, 25 and 62, protected 40% of treated animals from the lethal infection when administered orally.
row,SMILES,treated animals protected from the lethal infection [%]
1,Cc1ccc(C(C)N(C)c2ncc3c(N)nc(N)nc3n2)c2ccccc12 (stereo not drawn) [Compound 62],40
2,CC(c1csc2ccccc12)N(C)c1ncc2c(N)nc(N)nc2n1 (stereo not drawn) [Compound 25],40
